Literature values, collected in PMC7126291 (Bioorganic & Medicinal Chemistry Letters, 2009).

Columns and labels:
[1] = tested on: HAV 3C^pro
[2] = tested on: human rhinovirus; conditions: Phase II clinical trials, intranasal delivery

SMILES | IC50 [1] [nM] | reduction of mean total daily symptom score [2] [%]
O=C(Oc1cncc(Br)c1)c1ccco1 [Compound 7] | 53 | –
CCOC(=O)/C=C/[C@H](C[C@@H]1CCNC1=O)NC(=O)[C@@H](CC(=O)[C@@H](NC(=O)c1cc(C)on1)C(C)C)Cc1ccc(F)cc1 [rupintrivir] | – | 33
